Like-named read-outs stand apart in the source and are kept apart here.
Key:
[1] = hepatic microsomal stability, mouse liver microsomes; format: in vitro ADME
From the text: In the course of this investigation many compounds with similar potencies in the LMPTP (OMFP) assay were found. In order to determine which compound would be the best candidate for in vivo studies, an abbreviated ADME panel was ran on these compounds, a tabulation of the most interesting data on this set of compounds is illustrated in Table 3 below. From the hepatic microsome stability data the candidate selected for in vivo studies was Compound D1.
The microsomal stability assay is commonly used to rank compounds according to their metabolic stability. This assay addresses the pharmacologic question of how long the parent compound will remain circulating in plasma within the body.

[2] = molecular target: LMPTP-A (Low Molecular Weight Protein Tyrosine Phosphatase-A) enzyme (Homo sapiens (Human), UniProt P24666); experiment: LMPTP primary screening / LMPTP (OMFP) enzyme inhibition assay, fluorescence intensity; format: biochemical
Summary of the method: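 Single-concentration screen, test compounds 20 μM final, […]. Enzyme (0.625 nM) and OMFP (400 μM) react 50 min at room temp, dark, in Bis-Tris buffer pH 6.0 containing DTT 1 mM and Triton X-100 0.01%. Read-out: fluorescence intensity.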

3T3-L1 cells = experiment: insulin-based mouse 3T3-L1 adipogenesis assay (AdipoRed); format: cell-based; settings: 10 μM compound
Method: The probe Compound D1 was also profiled in an insulin-based mouse 3T3-L1 adipogenesis assay. In this assay, 3T3-L1 pre-adipocytes are grown to 2-days post-confluence in DMEM with 10% bovine calf serum, and then induced to differentiate to adipocytes following stimulation for 2 days with an induction cocktail containing 1 μg/ml insulin, 1 μM dexamethasone, and 0.5 mM 3-isobutyl-1-methylxanthine in DMEM containing 10% fetal bovine serum (FBS).^44 2 days later, the media is replaced with DMEM with 10% FBS and 1 μg/ml insulin, and after 2 additional days, the media is replaced with DMEM with 10% FBS for 2 additional days, at which point adipogenesis is measured using the AdipoRed Adipogenesis Assay Reagent from Lonza, according to the manufacturer's instructions. In brief, the assay reagent is added to the wells containing cells, where it partitions into the fat droplets of differentiated adipocytes, and emits fluorescence at 572 nm that can be detected with a plate-reader. To test the effect of probe Compound D1, cells were plated into 48-well plates and allowed to grow to confluence. Cells were then treated with 10 μM Compound D1 or 0.025% DMSO, and after 2 days induced to differentiate in the presence of 10 μM Compound D1 or 0.025% DMSO. Fresh compound or DMSO was added during each media replacement.

[3] = serum creatinine (kidney function) in treated mice; format: in vivo, mouse; settings: treated mice vs vehicle
Method: Serum creatinine levels from mice treated with Compound D1 (ML400) or vehicle (mice shown in FIG. 9) were assessed using the QuantiChrom Creatinine Assay Kit from BioAssay Systems.

[4] = test system: obese C57BL/6 mice on HFD; experiment: IPGTT glucose tolerance in high-fat diet obese mice; format: in vivo, mouse; settings: 30 mg/kg IP daily, 4 weeks, 2 g glucose/kg
Method: Male C57BL/6 mice were maintained on HFD containing 60 kcal % fat for 3 months, followed by daily IP administration of 30 mg/kg Compound D1 or vehicle. After 4 weeks, IPGTT were performed using 2 g glucose/kg body weight. Mean±SEM is shown. *, p<0.05, Two-way ANOVA.

[5] = molecular target: VHR-1 (VH1-related phosphatase, VHR) (Homo sapiens (Human), UniProt P51452); experiment: VHR-1 phosphatase selectivity dose response assay; format: biochemical
From the text: Disclosed herein is a collection of small-molecule inhibitors of the low molecular weight protein tyrosine phosphatase (LMPTP). The assays utilized in the primary and secondary screening were designed to identify allosteric inhibitors of LMPTP. […] The structure of the compounds was further optimized to generate a series of inhibitors of LMPTP-A isoform, with high selectivity over the LMPTP-B isoform, LYP and VHR, and with cellular activity. In an aspect is provided a compound having the formula: […]
LYP-1 and VHR-1 dose response assays to assess selectivity of Compound D1 against these non-homologous phosphatases.

[6] = plasma stability, mouse plasma; format: in vitro ADME
From the text: (§1) Plasma stability is a measure of the stability of small molecules and peptides in plasma and is an important parameter, which can strongly influence the in vivo efficacy of a test compound. Drug candidates are exposed to enzymatic processes (proteinases. esterases) in plasma, and they can undergo intramolecular rearrangement or bind irreversibly (covalently) to proteins.

[7] = plasma stability, human plasma; format: in vitro ADME
From the text: as §1

LMPTP = LMPTP (Homo sapiens (Human), UniProt P24666); experiment: mechanism of action: LMPTP activity on OMFP at increasing inhibitor concentrations (Michaelis-Menten); format: biochemical
Method: Activity of 20 nM LMPTP on OMFP substrate in the presence of increasing concentrations of ML400. Reactions were conducted at 37° C. in 50 mM Bis-Tris, pH 6.0 with 1 mM DTT and 0.01% Triton X-100. Mean±SD is shown. Lines show fitting of data to the Michaelis-Menten equation. Note decrease in both Vmax and KM with increasing inhibitor concentration.

Sequence of LMPTP-A (Low Molecular Weight Protein Tyrosine Phosphatase-A) enzyme (P24666 whole entry): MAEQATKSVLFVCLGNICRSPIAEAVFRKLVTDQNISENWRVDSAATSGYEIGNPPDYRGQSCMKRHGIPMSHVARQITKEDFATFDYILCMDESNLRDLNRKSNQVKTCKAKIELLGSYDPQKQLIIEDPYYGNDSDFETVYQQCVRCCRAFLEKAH
Sequence of LMPTP (P24666 whole entry): as above
Sequence of VHR-1 (VH1-related phosphatase, VHR) (P51452 whole entry, canonical isoform): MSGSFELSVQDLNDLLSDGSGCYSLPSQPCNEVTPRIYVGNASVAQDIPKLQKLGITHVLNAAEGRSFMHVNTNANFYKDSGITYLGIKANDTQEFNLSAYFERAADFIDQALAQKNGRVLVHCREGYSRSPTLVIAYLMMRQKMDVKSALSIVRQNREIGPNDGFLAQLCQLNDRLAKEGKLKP

- Hepatic Microsome Stability % Remaining @ 1 hr ([1]; Mouse microsomes, 1 hr): 48.75%
- microsomal stability ([1]; mouse liver microsomes after 1 hour): moderate stability
- IC50 ([2]; LMPTP-A, OMFP substrate, method of Example 2, read-out: IC50): 0.801 to 5 µM
- IC50 ([2]; Table 2 quinoline series, S sample (synthesized de novo), read-out: LMPTP (OMFP) (IC50)): 1.68 µM
- IC50 ([2]; Table 5, n = 4, AID686962, AID743307, read-out: LMPTP IC50): 1.68 ± 0.15 µM
- kidney function (serum creatinine) [3]: does not Affect Kidney Function
- Fold-Selective ([5]; LMPTP over VHR-1): >60-fold
- IC50 ([5]; n = 2, AID743310, read-out: Anti-target VHR-1 IC50): > 80 µM
- Plasma Stability % Remaining @ 3 hrs ([6]; Mouse plasma, 3 hrs): 68.97%
- plasma stability ([6]; mouse plasma): good stability
- Plasma Stability % Remaining @ 3 hrs ([7]; Human plasma, 3 hrs): 89.03%
- plasma stability ([7]; human plasma): good stability
- mechanism of action of LMPTP inhibition (LMPTP; 20 nM LMPTP, OMFP substrate, 37° C., pH 6.0): uncompetitive
- effect on Vmax and KM (LMPTP; increasing inhibitor concentration): lowering both Vmax and KM
Compound: COc1ccc(-c2cc(NCCCN3CCCCC3)c3ccccc3n2)cc1 [Compound D1, 2-(4-methoxyphenyl)-N-(3-(piperidin-1-yl)propyl)quinolin-4-amine]
- 3T3-L1 adipogenesis (3T3-L1 cells): completely abolished
- glucose tolerance (IPGTT) [4]: Improves Glucose Tolerance

Reference: patent US10626094B2 (La Jolla Institute of Allergy & Immunology, priority 2014, dated 2020)
